Measured values published in patent US9868728B2, “Quinazoline derivatives, compositions, and uses related thereto” (Emory University, priority 2010, dated 2018).

What was measured:
NOX2 = biological target: T1, NOX2 (Homo sapiens, UniProt P04839); assay: Nox2 cell-free assay (LO12 luminescence); format: biochemical; conditions: Nox2 cell-free system; for IC50: read-out: NOX2 IC50 (concentration giving half-maximal inhibition); for Emax: value in parentheses, read-out: % inhibition (maximum inhibition achieved at a very high concentration of the compound)
T1 construct: isolated plasma membranes from human neutrophils as a source for Nox2-p22phox; from tissue; host or cells: Plasma membranes of human neutrophils (Nox2-p22phox); cytosolic factors recombinant from E. coli
T1 sequence (P04839 2-570 limits assumed): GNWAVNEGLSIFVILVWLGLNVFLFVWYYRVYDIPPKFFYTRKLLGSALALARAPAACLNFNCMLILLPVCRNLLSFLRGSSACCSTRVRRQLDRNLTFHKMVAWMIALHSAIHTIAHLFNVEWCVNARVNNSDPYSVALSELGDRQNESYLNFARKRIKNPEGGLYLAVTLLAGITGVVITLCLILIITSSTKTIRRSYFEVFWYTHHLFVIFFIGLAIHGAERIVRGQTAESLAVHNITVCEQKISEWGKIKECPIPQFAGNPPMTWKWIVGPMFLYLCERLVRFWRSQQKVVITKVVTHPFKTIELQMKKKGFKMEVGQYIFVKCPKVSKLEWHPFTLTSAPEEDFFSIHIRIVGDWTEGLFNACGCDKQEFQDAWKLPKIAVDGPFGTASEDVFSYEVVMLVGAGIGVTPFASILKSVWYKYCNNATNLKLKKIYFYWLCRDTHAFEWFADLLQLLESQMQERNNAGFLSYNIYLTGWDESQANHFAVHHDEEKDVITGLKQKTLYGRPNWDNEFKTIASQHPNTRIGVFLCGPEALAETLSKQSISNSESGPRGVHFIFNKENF
T1 sequence (P13498 2-195 partner limits assumed): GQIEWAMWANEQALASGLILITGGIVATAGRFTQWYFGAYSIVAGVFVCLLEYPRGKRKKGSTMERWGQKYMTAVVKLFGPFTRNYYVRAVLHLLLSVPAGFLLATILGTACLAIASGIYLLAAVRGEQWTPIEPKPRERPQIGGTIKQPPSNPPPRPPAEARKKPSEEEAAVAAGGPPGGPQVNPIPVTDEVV
Method: The following compounds were tested according to the procedures provided in the experimental section. Assays were carried out using the Nox2 cell-free system. The IC50 value is the concentration giving half-maximal inhibition, while the “% inhibition” shown in parentheses is the maximum inhibition achieved at a very high concentration of the compound. 100% refers to complete inhibition within experimental error of the assay.
In certain assays a Cell-Free recombinant NOX-2 system (consisting of isolated plasma membranes from human neutrophils as a source for Nox2-p22phox, supplemented with recombinant p47phox, p67phox and Rac1Q61L (activated Rac), expressed in and isolated from of E. coli. LO12 luminescence was used as a readout to monitor enzymatic activity.
Plasma membranes were prepared from human neutrophils, which express large amounts of Nox2 and stored at −80 C until use. Membranes are mixed with recombinant, purified cytosolic regulatory proteins (p67Np47 chimera, and constitutively active Rac1 mutant Q61) and FAD, along with varying concentrations of compound, and LO12, which luminesces when it reacts with ROSvi. The reaction is started by addition of NADPH and SDS (an artificial stimulus for Nox2). See Curnutte et al., (1987) J. Biol. Chem. 262: 6450-6452.

human neutrophils = assay: ROS production in human neutrophils; format: cell-based; conditions: Neutrophil, which express the Nox2 system, read-out: IC50 of inhibition of ROS production
Text: The Nox2 inhibition activity of two compounds is shown in FIG. 1, along with data from the two assay controls.

Nox4 DH = biological target: T2, Nox4 DH (Homo sapiens, UniProt Q9NPH5); assay: Nox4 DH inhibition kinetics with NADPH; format: biochemical; conditions: versus substrate NADPH; major effect on apparent Km, minor effect on Vmax
T2 sequence (Q9NPH5 304-578 limits assumed): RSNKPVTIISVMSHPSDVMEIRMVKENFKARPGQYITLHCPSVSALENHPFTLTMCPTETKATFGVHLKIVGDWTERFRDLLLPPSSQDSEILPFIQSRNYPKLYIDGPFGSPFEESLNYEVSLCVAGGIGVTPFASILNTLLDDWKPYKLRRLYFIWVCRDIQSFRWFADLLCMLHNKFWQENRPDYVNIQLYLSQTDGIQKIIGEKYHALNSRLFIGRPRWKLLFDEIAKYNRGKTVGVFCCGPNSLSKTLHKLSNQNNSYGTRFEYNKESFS

Structure (SMILES)	IC50 (NOX2) [µM]	further results
CN(C)CCCCn1c(SCC(=O)Nc2nc(-c3ccc(Br)cc3)cs2)nc2ccccc2c1=O [AS158b]	2	Emax (NOX2): 100%; IC50 (human neutrophils): 1.5 µM
CN(C)CCCn1c(=S)[nH]c2ccc(Cl)cc2c1=O.Cl [TG6-44]	1	Emax (NOX2): 100%; mode of inhibition of Nox4 DH (Nox4 DH): competitive inhibitor; IC50 (human neutrophils): 2 µM
CCSC1Nc2ccccc2C(=O)N1CCC[N+]1(CC)CCOCC1 (stereo not shown) [TG6-99-2]	1.5	Emax (NOX2): 99%
N#CCCCCSc1nc2ccccc2c(=O)n1CCN1CCCCC1 [TG6-101]		NOX2 IC50 (concentration giving half-maximal inhibition) (NOX2): Not active
CSc1nc2ccccc2c(=O)n1CCC[N+]1(C)CCOCC1 [TG6-103-1]	1.5	Emax (NOX2): 100%
CSc1nc2ccc(F)cc2c(=O)n1CCC[N+](C)(C)C [TG6-103-2]	1	Emax (NOX2): 100%
O=c1c2cc(Cl)ccc2[nH]c(=S)n1CCN1CCNCC1 [TG6-170]	2	
O=c1c2cc(Cl)ccc2[nH]c(=S)n1CCCN1CCCCC1 [TG6-172]	1.1	
O=C(c1ccc(F)cc1)N1CCN(CCn2c(=S)[nH]c3ccc(Cl)cc3c2=O)CC1 [TG6-173]	2	
O=c1c2cc(Cl)ccc2[nH]c(=S)n1CCCN1CCCCC1 [TG6-243]	0.6	
CN(C)CCCn1c(=S)[nH]c2ccc(F)cc2c1=O [TG6-248]	0.6	
O=c1c2ccccc2[nH]c(=S)n1CCCN1CCOCC1 [TG6-249]	1	
CN(C)CCCn1c(=S)[nH]c2cc(F)c(F)cc2c1=O [TG6-250]	0.4	
CCn1c(=S)[nH]c2ccc(F)cc2c1=O [TG6-269-1]	0.7	
CC(C)n1c(=S)[nH]c2cc3c(cc2c1=O)OCCO3 [TG6-272]	0.7	
CCCn1c(=S)[nH]c2ccc(Cl)cc2c1=O [TG6-280]	8	
CC(C)n1c(=S)[nH]c2cc(F)c(F)cc2c1=O [TG6-284-2]	0.7	
CN(C)c1cccc(-n2c(=S)[nH]c3ccc(Cl)cc3c2=O)c1 [TG6-285]	1.3	
CN(C)CCCn1c(=S)[nH]c2cc3c(cc2c1=O)OCCO3 [TG6-290-1]	0.8	
COc1cc2[nH]c(=S)n(C#N)c(=O)c2cc1OC [TG6-295-2]	0.2	
COc1ccc(N2CCN(CCn3c(=S)[nH]c4ccc(Cl)cc4c3=O)CC2)cc1 [TG7-20]	0.3	
COc1ccc(N(C)CCCn2c(=S)[nH]c3ccc(Cl)cc3c2=O)cc1 [TG7-25]	0.2	
COc1ccc(N2CCN(CCn3c(=S)[nH]c4cc(OC)c(OC)cc4c3=O)CC2)cc1 [TG7-29]	0.7	
